The results in this text go back to US20120035201A1, “SPIROHETEROCYCLIC PYRROLIDINE DIONE DERIVATIVES USED AS PESTICIDES” (SYNGENTA CROP PROTECTION LLC, priority 2009, published 2012).

Data set [1] has as its system Nilaparvata lugens (brown rice planthopper). Briefly: Example B8: activity against Nilaparvata lugens, larvicide on rice seedlings (feeding/contact). Conditions: sprayed rice seedlings, N3 nymphs, 6-12 days, read-out: activity (mortality, growth regulation, effects on F1 generation). Type of data set: in vivo. The method, then: Activity Against Nilaparvata lugens (Brown Rice Planthopper)
(Larvicide, Feeding/Contact)
Rice seedlings are treated with the diluted test solutions in a spray chamber. After drying, they are infested with 20 N3 nymphs (2 replicates). 6-12 days after the treatment samples are checked for mortality, growth regulation, and effects on the F1 generation. In this test, compounds listed in the Table A above show good activity. For example compounds A1, A2, A4, A7, A8, A9, A13 and A14 show an activity of over 80% at a concentration of 400 ppm.

Data set [2] deals with Aphis Craccivora (cowpea aphid). Briefly: Example B15: activity against Aphis craccivora, pea seedling roots in test solution (systemic/feeding). In kind it is in vivo. Conditions: 144 h, roots of infested pea seedlings in test solution, 6 days. The text has this: Activity Against Aphis Craccivora (Cowpea Aphid)
(§1) (Mixed Population, Systemic/Feeding)
6 days later, samples are checked for mortality. In this test, compounds listed in Table A above show good activity. For example compounds A8, A9, A13 and A14 show an activity of over 80% at a concentration of 25 ppm.

For data set [3], the system named is Diabrotica balteata (corn root worm). The data set is described as follows: Example B5: activity against Diabrotica balteata, larvicide on artificial diet in microtiter plate. Type of data set: in vivo. The following applies: 120 h, L2 larvae, 5 days, read-out: activity (larval mortality, antifeedant, growth regulation). As to the method:
Activity Against Diabrotica balteata (Corn Root Worm)
(Larvicide, Feeding/Residual Contact Activity, Preventive)
24-well microtiter plate (MTP) with artificial diet is treated with test solutions by pipetting. After drying, the MTP's are infested with larvae (L2)(6-10 per well). After an incubation period of 5 days, samples are checked for larval mortality, antifeedant and growth regulation.

For data set [4], the system named is Thrips tabaci (onion thrips). Briefly: Example B4: activity against Thrips tabaci, sprayed sunflower leaf discs (feeding/residual contact, preventive). Conditions: foliar, 144 h, read-out: activity (mortality).
Data set [5] relates to Myzus persicae (green peach aphid). Briefly: Example B1: activity against Myzus persicae, sprayed sunflower leaf discs (feeding/residual contact, preventive). The following applies: foliar, 144 h, read-out: activity (mortality).
The test system is the same in data set [6]. Briefly: Example B12: activity against Myzus persicae on sprayed pepper plants (feeding/residual contact). Type of data set: in vivo. The following applies: 144 h, 6 days.
For another data set, the system named is pepper plants. The data set is described as follows: Example B12: plant damage evaluation (phytotoxicity) on sprayed pepper plants. The following applies: in vivo, 6 days, 200 ppm.
The subject of data set [7] is Aphis Craccivora (cowpea aphid). The data set is described as follows: Example B9: translaminar activity against Aphis craccivora on French bean leaves. Conditions: 120 h, upper leaf side painted, aphids on lower side, 5 days. Type of data set: in vivo. As to the method:
Translaminar Activity Against Aphis Craccivora (Cowpea Aphid)
French bean leaves (Phaseolus vulgaris) are infested with about 20 mixed age individuals on the lower leaf side using clip cages. 1 day after the infestation, the upper side of the leaves is treated with the test solution by painting. 5 days later, samples are checked for mortality.

For data set [8], the system named is Tetranychus urticae (two-spotted spider mite). Briefly: Example B3: activity against Tetranychus urticae, sprayed bean leaf discs (feeding/residual contact, preventive). Conditions: foliar, 192 h, mixed population, 8 days, read-out: activity (egg, larval and adult mortality). In kind it is in vivo. The text has this: Activity Against Tetranychus urticae (Two-Spotted Spider Mite)
(Mixed Population, Feeding/Residual Contact Activity, Preventive)
Bean leaf discs on agar in 24-well microtiter plates are sprayed with test solutions. […] 8 days later, discs are checked for egg mortality, larval mortality, and adult mortality. In this test, compounds listed in the Table A above show good activity. In particular compounds A1, A4, A5, A7, A8, A9, A10, A11, A12, A13 and A14 show an activity of over 80% at a concentration of 400 ppm.

Data set [9] has as its system Myzus persicae (green peach aphid). The data set is described as follows: Example B2: activity against Myzus persicae, pea seedling roots in test solution (systemic/feeding, curative). Conditions: 144 h, read-out: activity (mortality).
In data set [10] the test system is Aphis gossypii (cotton aphid). Briefly: Example B11: activity against Aphis gossypii, pea seedling roots in test solution (systemic/feeding). Type of data set: in vivo. The following applies: 144 h, roots of infested pea seedlings in test solution, 6 days.
Excerpt: Activity Against Aphis gossypii (Cotton Aphid)
as §1
6 days later, samples are checked for mortality. In this test, compounds listed in Table A above show good activity.

The test system of data set [11] is Aonidiella Aurantii (red scale). Briefly: Example B10: activity against Aonidiella aurantii, dipped potato tubers. Conditions: 200 ppm, 6-8 weeks. Type of data set: in vivo. The source says: Activity Against Aonidiella Aurantii (Red Scale)
Treatment of potato tubers by dipping the in the test solution. One day later, tubers are infested with about 50 crawlers. 6-8 weeks after application samples are checked for the number of crawlers of the next generation (compared to the non treated samples). In this test, compounds listed in the Table A above show good activity.

Data set [12] relates to Bemisia tabaci (tobacco white fly). Briefly: Example B7: activity against Bemisia tabaci, larvicide on bean plants (contact/feeding). Conditions: 200 ppm; bean plants with N-2 nymphs sprayed, three weeks. In kind it is in vivo. The method, then:
Activity Against Bemisia tabaci (Tobacco White Fly)
(Larvicide, Contact/Feeding)
Bean plants are infested with 20-30 adults that were removed after a 4 day egg-laying period. After another 7 days, bean plants with hatched nymphs (N−2) are treated (2 replicates) with the test solutions in a spray chamber. Three weeks later, samples are checked for number of emerged adults. Efficacy was calculeted by comparing number of emerged adults in treated and non treated samples.

The test system of data set [13] is cowpea aphid (Aphis craccivora). The data set is described as follows: Example B13: insecticide seed treatment of sugarbeet seeds, infestation with cowpea aphid. In kind it is in vivo. The following applies: 0.1 mg a.i./seed, infested after 14 days, counted 7 days later. As to the method:
Insecticide Seed Treatment
Sugarbeet seeds are treated with test compounds at various rates (mg a.i./seed). The seeds are sown into pots filled with soil. After placing the seeds on the soil surface they are further covered with soil. Before and during the bioassays, the plants are grown under optimal greenhouse conditions. After 14 days, the plants are infested with cowpea aphid (Aphis craccivora) by placing one infested pea seedling containing approximately 150 aphids of a population of mixed developmental stages onto each plant. Seven days after infestation, the number of aphids is counted per plant. Each treatment group is replicated 10 times. Each replicate contains 1 plant.

`CON1CCC2(CC1)NC(=O)C(Cl)(c1cc(C)c(C)cc1C)C2=O` (stereo not drawn) [A13]: the mortality at 400 ppm in data set [1], in data set [3], in data set [4], in [5], in data set [7] and in [8] was above 80% in each case. The mortality at 400 ppm in [9] is above 80%. The mortality at 25 ppm in data set [2] was above 80%. Further, in [6], the mortality at 200 ppm was at least 80%. Besides, the “damage to pepper plants (phytotoxicity, 0-100% rating scale)” value in the data set with pepper plants is reported as at most 10%.
For `CON1CCC2(CC1)NC(=O)C(Cl)(c1c(C)cc(Br)cc1C)C2=O` (stereo not drawn) [A6], the mortality at 400 ppm in data set [5] was above 80%.
With `CON1CCC2(CC1)NC(=O)C(Cl)(c1c(C)cc(Cl)cc1C)C2=O` (stereo not drawn) [A5], the mortality at 400 ppm in data set [4], in data set [5], in data set [8] and in data set [9] was above 80% each time. Besides, the mortality at 200 ppm in data set [6] was at least 80%. Also, in the data set with pepper plants, the “damage to pepper plants (phytotoxicity, 0-100% rating scale)” value is listed as at most 10%.
As for `CON1CCC2(CC1)NC(=O)C(Cl)(c1cc(C)ccc1C)C2=O` (stereo not drawn) [A1, 3-chloro-3-(2,5-dimethyl-phenyl)-8-methoxy-1,8-diaza-spiro[4.5]decane-2,4-dione], the mortality at 400 ppm in data set [1], in data set [3], in data set [4], in [5], in data set [8] and in [9] was above 80% in each case. This molecule gave a mortality at 25 ppm in data set [10] above 80%. Moreover, the “activity (number of crawlers of the next generation vs non treated)” value in data set [11] is on record as “over 80%”. For the same molecule, in [12], the “activity (efficacy, number of emerged adults vs non treated)” value is reported as “over 80%”. The “efficacy in the reduction of aphids compared to untreated control plants” value in [13] is reported as “over 80%”.
For the molecule `CON1CCC2(CC1)NC(=O)C(Cl)(c1c(C)cccc1C)C2=O` (stereo not drawn) [A8], the mortality at 400 ppm in data set [1], in data set [4], in data set [5], in [7], in [8] and in data set [9] was above 80% in each case. The molecule also had a mortality at 25 ppm in [2] above 80%. Moreover, the mortality at 200 ppm in data set [6] is at least 80%. Besides, the “damage to pepper plants (phytotoxicity, 0-100% rating scale)” value in the data set on pepper plants is at most 10%.
On to `CON1CCC2(CC1)NC(=O)C(Cl)(c1c(C)ccc(Cl)c1C)C2=O` (stereo not drawn) [A10], for which the mortality at 400 ppm in data set [4], in data set [5] and in data set [8] was above 80% each time.
As to `CON1CCC2(CC1)NC(=O)C(Cl)(c1ccc(Cl)cc1Cl)C2=O` (stereo not drawn) [A3], the mortality at 400 ppm in data set [5] and in [9] was above 80% in each case.
With `CON1CCC2(CC1)NC(=O)C(Cl)(c1cc(Br)c(C)cc1C)C2=O` (stereo not drawn) [A15], the mortality at 400 ppm in [4], in data set [5] and in data set [9] was above 80% in each case.
With `CON1CCC2(CC1)NC(=O)C(Cl)(c1c(C)cc(C)cc1Cl)C2=O` (stereo not drawn) [A9], the mortality at 400 ppm in data set [1], in data set [4], in data set [5], in data set [7], in [8] and in [9] was above 80% throughout. Further, the mortality at 25 ppm in [2] is above 80%.
As to `CON1CCC2(CC1)NC(=O)C(Cl)(c1cc(C)c(Cl)cc1C)C2=O` (stereo not drawn) [A11], the mortality at 400 ppm in [3], in [4], in data set [5] and in [8] was above 80% in each case.
In the case of `CON1CCC2(CC1)NC(=O)C(Cl)(c1c(C)cc(Br)cc1Cl)C2=O` (stereo not drawn) [A7, 3-(4-bromo-2-chloro-6-methyl-phenyl)-3-chloro-8-methoxy-1,8-diaza-spiro[4.5]decane-2,4-dione], the mortality at 400 ppm in data set [1], in data set [4], in [5], in [7], in data set [8] and in data set [9] was above 80% throughout. The mortality at 200 ppm in [6] is at least 80%. For the same molecule, the “damage to pepper plants (phytotoxicity, 0-100% rating scale)” value with pepper plants was at most 10%.
Regarding `CON1CCC2(CC1)NC(=O)C(Cl)(c1c(C)cc(C)cc1C)C2=O` (stereo not drawn) [A14], the mortality at 400 ppm in [1], in data set [4], in [5], in data set [7], in data set [8] and in data set [9] was above 80% in each case. Besides, the mortality at 25 ppm in [2] was above 80%.
`CON1CCC2(CC1)NC(=O)C(Cl)(c1c(Br)cc(C)cc1Br)C2=O` (stereo not drawn) [A18]: the mortality at 400 ppm in data set [5] and in [9] was above 80% in each case.
One may read the melting point as the temperature of the solid-liquid transition. With `CON1CCC2(CC1)NC(=O)C(c1c(C)cc(C)cc1C)([N+](=O)[O-])C2=O` (stereo not drawn) [A16, 8-methoxy-3-nitro-3-(2,4,6-trimethyl-phenyl)-1,8-diaza-spiro[4.5]decane-2,4-dione], the melting point was 136 °C (dec.).
With `CON1CCC2(CC1)NC(=O)C(F)(c1cc(C)ccc1C)C2=O` (stereo not drawn) [A2, 3-(2,5-dimethyl-phenyl)-3-fluoro-8-methoxy-1,8-diaza-spiro[4.5]decane-2,4-dione], the mortality at 400 ppm in data set [1], in [4] and in data set [5] was above 80% in each case.
In the case of `CON1CCC2(CC1)NC(=O)C(Cl)(c1cc(C)c(C)cc1Cl)C2=O` (stereo not drawn) [A12], the mortality at 400 ppm in data set [3], in [4], in data set [5], in data set [8] and in data set [9] was above 80% each time.
